Measured values: US20220087961A1, “TREATMENT METHODS OF TRIPHENYL CALCILYTIC COMPOUNDS” (CALCILYTIX THERAPEUTICS, INC., priority 2020, published 2022)

Legend:
subjects with ADH1 [1] = assay: Phase 2b open-label dose-ranging study, Period 1 / Cohort 1; type: in vivo, human
Text: A Phase 2b, open-label dose-ranging study is designed to evaluate the safety, tolerability, and efficacy of CLTX-305 to maintain normalized albumin-corrected blood calcium (cCa) in subjects with hypocalcemia due to ADH1. An overview scheme of the Phase 2b study is illustrated in FIG. 2.
Period 1: an inpatient stay that consists of 5 dosing days during which subjects will undergo a once-daily (QD) dose escalation for 3 days followed by 2 days of twice daily (BID) dosing at an individualized test dose of CLTX-305.
In Period 1, eligible Cohort 1 subjects are admitted to the NIH CC after completing screening tests. On days 1-3 of admission, Cohort 1 subjects will undergo single daily dosing and protocol-specified dose-escalation of CLTX-305 from the initial dose of 30 mg on Day 1, increasing to a maximum dose of 180 mg on Day 3. Based on the individualized responses to QD dose escalation an individualized dose of CLTX-305 will be chosen for BID administration on Days 4 and 5.
Days 1, 2 and 3 (QD Dose Escalations): Up to 8 subjects (minimum of 5) will undergo a single-dose, dose-escalation over the first 3 days of admission in Period 1. Morning doses will be administered on Days 1, 2 and 3, respectively, accompanied by frequent blood and urine sampling for 24-hours for PK/PD measures. CLTX-305 will be administered in the morning within 30 minutes prior to breakfast. If dose escalation is limited due to tolerability or hypercalcemia, then the investigator, in consultation with sponsor, may choose to interrupt the pre-specified dose escalation. In this case, the investigator, in consultation with sponsor, may choose to repeat the last well tolerated dose on Days 2 and 3, or titrate down as appropriate.
Days 4 and 5 (BID Dose Escalation): Based on each subject's individual PD responses to QD dose-escalation, an individualized dose of CLTX-305 will be chosen for BID dosing on Days 4 and 5. CLTX-305 will be administered once in the morning and once in the evening, within 30 minutes prior to breakfast and dinner. The dose selected should be based on each subject's response in cCa and/or PTH levels during the prior QD dosing (Days 1-3).
Days 1, 2 and 3 (QD Dose Escalations): Up to 8 subjects (minimum of 5) will undergo a single-dose, dose-escalation over the first 3 days of admission. Morning doses of 30, 90 and 180 mg will be administered on Days 1, 2 and 3, respectively, accompanied by frequent blood and urine sampling for 24-hours for PK/PD measures (For details of PK/PD assays and timepoints as shown in Table 4A-Table 4C, Table 5, and Table 6A-Table 6C CLTX-305 will be administered in the morning, with water, within 30 minutes prior to breakfast. If dose escalation is limited due to tolerability or hypercalcemia, the investigator, in consultation with sponsor, may choose to repeat the last well-tolerated dose on Days 2 and 3, or down-titrate, as appropriate (See below for dosing guidance algorithm).
In order to characterize both the pre-study calcemic status as well as changes associated with experimental interventions, the protocol will rely on frequent measurement of albumin-corrected blood calcium concentrations. Assays will be conducted according to specifications of the NIH Clinical Center Laboratory, Bethesda, Md. The main indicator of normal versus abnormal blood calcium levels will be based on the correction for serum or plasma albumin according to the formula corrected calcium (cCa)=measured total calcium (mg/dL)+0.8(4−albumin (g/dL)) OR measured total calcium (mmol/L)+0.2(4−albumin (g/dL)), recognizing that the total calcium reported in SI units (mmol/L) can be converted to conventional units (mg/dL) by multiplying by 4. Given that enrolled subjects are expected to have both normal and stable albumin levels, the measures of total calcium and cCa are likely to be similar throughout the time course of this study. […]

subjects with ADH1 [2] = assay: Phase 2b open-label dose-ranging study, Period 2; type: in vivo, human
Description: Period 2: an inpatient stay that consists of 5 dosing days during which subjects will receive BID doses of CLTX-305 based on individual responses from Period 1 (for subjects who complete Period 1) or review of aggregate data from Period 1 (for subjects in Cohort 2 entering Period 2 without prior exposure to CLTX-305). The initial dose, dose level 1 (DL1) will be administered for 2 days (48 hours) with cCa monitoring. Participants will undergo encaleret dose up- or down-titration depending on cCa levels, with a potential increase in dose if cCa remains below the lower limit of normal and potential decrease in dose if cCa is greater than or equal to the upper limit of normal. A final test day (Day 5) will include frequent blood and urine sampling to collect 24-hour PK/PD profiles after at least 3 consecutive days of dosing (at either DL1 or DL2).
In Period 2, eligible Cohort 1 subjects, who have completed Period 1, may return after at least 8 weeks for admission to NIH for Period 2. After all Cohort 1 subjects have finished Period 1 and the data analyzed, the Sponsor will open enrolment for Cohort 2 subjects. Eligible Cohort 2 subjects may enroll directly into Period 2, after completing the screening and consent process per protocol. In Period 2 all subjects will initiate CLTX-305 BID dosing given within 30 minutes prior to breakfast and dinner on Days 1 and 2. cCa concentrations will be monitored frequently throughout Period 2, and CLTX-305 doses will be up- or down-titrated as needed to target normal cCa concentrations. Assessment of the 24-hour PK/PD profile of CLTX-305 with BID dosing will be conducted on Day 5.
As a result, all remaining subjects in Period 2 will receive an initial CLTX-305 90 mg BID dose for at least 3-4 doses for evaluation of safety, tolerability and the ability to modulate cCa levels. The CLTX-305 dose will be up- or down-titrated as needed to maintain cCa levels below 10 mg/dL and blood phosphorus levels above the lower limit of normal. […]

CaSR = molecular target: T1, CaSR (Homo sapiens, UniProt P41180); details: cell-based assays at 2 mM extracellular calcium; read-out: IC50, inhibition of the CaSR via allosteric modulation; cited from earlier work
T1 sequence (P41180 20-1078): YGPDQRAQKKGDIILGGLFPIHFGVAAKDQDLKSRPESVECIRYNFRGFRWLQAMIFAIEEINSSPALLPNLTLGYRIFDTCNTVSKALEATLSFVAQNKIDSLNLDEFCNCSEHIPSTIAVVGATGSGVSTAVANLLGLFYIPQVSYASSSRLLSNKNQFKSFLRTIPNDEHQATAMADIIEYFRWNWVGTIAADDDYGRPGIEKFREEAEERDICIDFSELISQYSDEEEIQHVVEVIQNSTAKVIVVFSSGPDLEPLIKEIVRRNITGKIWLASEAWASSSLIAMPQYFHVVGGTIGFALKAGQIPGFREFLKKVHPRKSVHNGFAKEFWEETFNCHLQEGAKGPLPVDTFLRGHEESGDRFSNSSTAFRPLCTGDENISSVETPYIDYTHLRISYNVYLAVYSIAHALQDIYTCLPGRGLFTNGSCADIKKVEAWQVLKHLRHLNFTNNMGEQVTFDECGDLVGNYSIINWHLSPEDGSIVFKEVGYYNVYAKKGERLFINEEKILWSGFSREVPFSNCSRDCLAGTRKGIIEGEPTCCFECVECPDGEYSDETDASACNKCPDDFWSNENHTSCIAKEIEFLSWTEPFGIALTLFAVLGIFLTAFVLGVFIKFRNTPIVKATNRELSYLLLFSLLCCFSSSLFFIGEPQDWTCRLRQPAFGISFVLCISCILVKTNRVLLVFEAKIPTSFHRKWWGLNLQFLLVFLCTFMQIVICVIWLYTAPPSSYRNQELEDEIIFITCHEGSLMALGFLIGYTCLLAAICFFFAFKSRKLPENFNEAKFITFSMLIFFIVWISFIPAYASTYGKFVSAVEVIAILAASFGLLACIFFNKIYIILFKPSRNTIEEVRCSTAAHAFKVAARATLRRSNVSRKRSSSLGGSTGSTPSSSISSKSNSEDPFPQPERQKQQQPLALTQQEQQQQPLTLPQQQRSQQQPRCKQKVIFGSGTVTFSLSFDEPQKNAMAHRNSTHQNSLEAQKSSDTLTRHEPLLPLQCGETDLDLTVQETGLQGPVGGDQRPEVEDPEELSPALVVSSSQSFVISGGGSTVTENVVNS

[3] = cited from earlier work
[4] = non-clinical data; cited from earlier work
[5] = cited from earlier work; remark: listed apart in the source
[6] = system: healthy volunteers and postmenopausal women with osteoporosis; details: cited from earlier work
healthy subjects = details: single oral dose of up to 100 mg; cited from earlier work
[7] = preclinical; dose-limiting effects were mechanism-based serum calcium elevations; cited from earlier work
rabbits = details: fetuses; cited from earlier work
subjects with ADH1 [8] = details: subjects with ADH1, sample size of 5; cited from earlier work
[9] = humans, most single doses or steady-state
[10] = not significant when body weight taken into account

Cc1cc(-c2ccccc2[C@@H](C)OC[C@H](O)CNC(C)(C)Cc2ccc(Cl)c(F)c2)ccc1C(=O)O [CLTX-305, encaleret]
serious adverse events (subjects with ADH1 [1]; Period 1): no serious adverse events reported
plasma exposure, dose relation (FIG. 8) (subjects with ADH1 [1]; Period 1, 30-180 mg): dose proportional increase in plasma exposure
Number of AEs (subjects with ADH1 [1]; Period 1, N=6): 9 n
tolerability (subjects with ADH1 [1]; Period 1, escalating oral doses once or twice daily over 5 days): well-tolerated
PTH, mean level over 24 hours by day 5 (subjects with ADH1 [1]; Period 1, n=6, mean±SD, baseline 3.4±4.5): 64.8 ± 49.6 pg/mL
Magnesium, 24-hour day 5 mean (subjects with ADH1 [1]; Period 1, n=6, baseline 1.6±0.4): 2.0 ± 0.5 mg/dL
Phosphorus, 24-hour day 5 mean (subjects with ADH1 [1]; Period 1, n=6, baseline 4.5±0.7): 2.9 ± 0.5 mg/dL
Albumin-corrected blood calcium (cCa), 24-hour mean on day 5 (subjects with ADH1 [1]; Period 1, n=6, baseline 7.6±0.6): 9.0 ± 0.5 mg/dL
Twenty-four hour urine calcium on day 5 (subjects with ADH1 [1]; Period 1, n=6, screening 436±255 on conventional therapy): 63 ± 127 mg/day
subjects in whom urinary calcium excretion became normal (subjects with ADH1 [1]; Period 1, of 6): 3 subjects
subjects in whom urinary calcium excretion became undetectable (subjects with ADH1 [1]; Period 1, of 6): 3 subjects
serious adverse events (subjects with ADH1 [2]; Period 2 (Periods 1 and 2)): no serious adverse events reported
tolerability (subjects with ADH1 [2]; Period 2 (Periods 1 and 2), once or twice daily over 5 days): well-tolerated
Number of AEs (subjects with ADH1 [2]; Period 2, n=13): 12 n
IC50 (CaSR): 86.2 nM
dose proportionality of plasma concentrations ([3]; 5, 10, 15, 30, 50 and 100 mg, fasted state): Dose-proportional increases
age-related or race differences in pharmacokinetics ([3]; US population vs. Japanese subjects): No significant age-related or race differences
half-life of CLTX-305 at steady state ([3]; as stated in the study assessment section): 10 to 14 h
food effect on plasma concentrations ([3]; dose range 5-100 mg): without significant food effect
tmax median [3, 9]: 1.5 h
tmax range [3, 9]: 0.75 to 3 h
elimination half-life (t1/2) after single doses ([3]; humans, single doses): approximately 6.5 hours
elimination half-life (t1/2) at steady state ([3]; humans, steady state (14 days)): 11 to 14 h
excretion of unchanged CLTX-305 and metabolites into urine ([3]; humans, total of parent and metabolite): < 5%
AUC higher in females [3, 10]: approximately 37%
Cmax higher in females [3, 10]: ~30%
accumulation ([3]; once daily (QD) for two weeks, Japanese postmenopausal women): minimal accumulation
main route of elimination [4]: fecal excretion was the main route of elimination
increase in AUC0-24 on co-administration with ketoconazole [5]: approximately 2 ×
increase in Cmax on co-administration with ketoconazole [5]: approximately 1.67 ×
acute safety and tolerability ([6]; 5-100 mg, non-ADH1 subjects): acutely safe and well tolerated
safety issues or signals ([6]; acute dosing up to 100 mg, chronic dosing up to 15 mg QD, over 1300 healthy males and post-menopausal women): no specific safety issues or signals were seen
subjects with blood calcium above the upper limit of the laboratory reference range ([6]; chronic once-daily dosing up to 15 mg, postmenopausal women, long-term trials): up to 30%
serious adverse events related to hyper- or hypocalcemia ([6]; osteoporosis program, postmenopausal women): No serious adverse events (SAEs)
tolerability in humans during chronic treatment ([6]; up to and beyond 12 months): generally well tolerated
QTc prolongation (healthy subjects): no clinically meaningful QTc prolongation
off-target or organ-specific toxicities [7]: no off-target or other tissue or organ-specific toxicities were identified
dose at which incidence of fetal skeletal anomalies (fusion of the sternebra) was increased (rabbits): ≥ 30 mg/kg

CC(C)(CC1Cc2ccccc2C1)NC[C@@H](O)COc1cc(CCC(=O)O)ccc1C#N [NPSP795]
dose-response on iPTH (subjects with ADH1 [8]): preliminary evidence for a dose-response on iPTH
